Reference: ChEMBL document CHEMBL1151021, “Synthesis of potent 6-oxo and 9-fluoro-PGE1-derivatives and their biological properties” (Bioorg Med Chem Lett, 1992)
Activity calls are given as the source filed them. The rule behind the calls is not given here.

Assays:
[1] = Concentration required for the inhibition of blood platelet aggregation induced by ADP; format: functional
[2] = target: Prostacyclin receptor (Homo sapiens) (UniProt P43119); assay: The compound was evaluated for the affinity towards Prostaglandin I2 receptor; not parallel
Sequence of Prostacyclin receptor (Homo sapiens) (P43119 whole entry): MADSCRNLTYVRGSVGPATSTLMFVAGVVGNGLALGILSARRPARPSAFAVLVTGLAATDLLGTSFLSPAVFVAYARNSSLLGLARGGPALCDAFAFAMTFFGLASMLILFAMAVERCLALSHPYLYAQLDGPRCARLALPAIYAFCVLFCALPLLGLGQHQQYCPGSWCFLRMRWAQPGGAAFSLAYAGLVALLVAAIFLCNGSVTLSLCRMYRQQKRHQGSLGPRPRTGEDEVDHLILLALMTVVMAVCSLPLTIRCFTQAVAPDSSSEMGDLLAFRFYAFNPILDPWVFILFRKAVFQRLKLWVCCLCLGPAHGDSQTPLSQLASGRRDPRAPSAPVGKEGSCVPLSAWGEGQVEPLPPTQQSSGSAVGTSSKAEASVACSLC

[3] = The compound was evaluated for the affinity towards PGE-2 receptor
[4] = target: Prostacyclin receptor (Homo sapiens) (UniProt P43119); assay: The compound was evaluated for the affinity towards Prostaglandin I2 receptor
[5] = target: T1, Prostaglandin D2 receptor (Homo sapiens) (UniProt Q13258); assay: The compound was evaluated for the affinity towards PGD-2 receptor
T1 sequence (whole entry): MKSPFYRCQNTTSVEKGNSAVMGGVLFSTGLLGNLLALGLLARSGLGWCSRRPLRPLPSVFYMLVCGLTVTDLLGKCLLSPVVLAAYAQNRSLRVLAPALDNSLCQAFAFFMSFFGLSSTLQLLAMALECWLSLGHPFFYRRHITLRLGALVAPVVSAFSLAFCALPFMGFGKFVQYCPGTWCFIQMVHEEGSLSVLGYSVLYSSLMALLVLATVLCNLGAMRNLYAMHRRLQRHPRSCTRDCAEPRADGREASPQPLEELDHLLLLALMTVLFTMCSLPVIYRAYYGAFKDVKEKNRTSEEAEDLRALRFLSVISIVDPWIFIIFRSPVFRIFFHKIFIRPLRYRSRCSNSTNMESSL

[6] = The compound was evaluated for the affinity towards PGE-2 receptor; no competition
[7] = target: Prostacyclin receptor (Homo sapiens) (UniProt P43119); assay: The compound was evaluated for the affinity towards Prostaglandin I2 receptor; no competition

| Structure (SMILES) | IC50 [1] | KF [2] | KF [3] | KF [4] | KF [5] | KF [6] | KF [7] |
| --- | --- | --- | --- | --- | --- | --- | --- |
| CC#CC[C@H](C)[C@H](O)/C=C/[C@H]1[C@H](O)CC(=O)[C@@H]1CC(=O)CCCCC(=O)O | 1 nM | 40 | 40 |  |  |  |  |
| CCC#CC[C@H](C)[C@H](O)C#C[C@H]1[C@H](O)CC(=O)[C@@H]1CC(=O)CCCCC(=O)O | 0.09 nM |  | 7.5 | 5 |  |  |  |
| CC#CC[C@H](C)[C@H](O)/C=C/[C@@H]1[C@@H](CC(=O)CCCCC(=O)O)[C@H](F)C[C@H]1O | 100 nM | 200 |  |  |  |  |  |
| CCC#CC[C@H](C)[C@H](O)C#C[C@@H]1[C@@H](CC(=O)CCCCC(=O)O)[C@H](F)C[C@H]1O | 20 nM | 32 | 700 |  |  |  |  |
| CCCCC[C@H](O)/C=C/[C@H]1[C@H](O)CC(=O)[C@@H]1CC(=O)CCCCC(=O)O | 7 nM |  | 7.1 | 129 |  |  |  |
| CC#CCC(C)[C@H](O)/C=C/[C@H]1[C@H](O)CC(=O)[C@@H]1CC(=O)CCCCC(=O)O (some centres undefined) | 1.6 nM |  | 140 | 60 | 600 |  |  |
| O=C(O)CCCCC(=O)C[C@H]1C(=O)C[C@@H](O)[C@@H]1/C=C/[C@@H](O)C1CCCCC1 | 3 nM |  |  | 58 | 70 | inactive |  |
| CC#CC[C@H](C)[C@H](O)/C=C/[C@@H]1[C@@H](CC(=O)CCCCC(=O)O)[C@@H](F)C[C@H]1O | 1000 nM |  |  |  |  |  | inactive |
